Data reported in US5952510A, “1,3-dihydro-1-(phenylalkenyl)-2H-imidazol-2-one derivatives having PDE IV and cytokine inhibiting activity” (Janssen Pharmaceutica, N.V., priority 1995, dated 1999).

Key:
[1] = target: T1, recombinant human MNL phosphodiesterase type IV B (Homo sapiens, UniProt Q07343); experiment: Inhibition of recombinant human mononuclear lymphocyte (MNL) phosphodiesterase type IV B produced in insect cells with a baculovirus vector; assay type: biochemical; details: 0.8 μM 3H-cAMP, pH 8, 37° C., 10 min; calculated graphically
T1 construct: made in house; host or cells: insect cells infected with recombinant baculovirus
T1 sequence (Q07343 whole entry): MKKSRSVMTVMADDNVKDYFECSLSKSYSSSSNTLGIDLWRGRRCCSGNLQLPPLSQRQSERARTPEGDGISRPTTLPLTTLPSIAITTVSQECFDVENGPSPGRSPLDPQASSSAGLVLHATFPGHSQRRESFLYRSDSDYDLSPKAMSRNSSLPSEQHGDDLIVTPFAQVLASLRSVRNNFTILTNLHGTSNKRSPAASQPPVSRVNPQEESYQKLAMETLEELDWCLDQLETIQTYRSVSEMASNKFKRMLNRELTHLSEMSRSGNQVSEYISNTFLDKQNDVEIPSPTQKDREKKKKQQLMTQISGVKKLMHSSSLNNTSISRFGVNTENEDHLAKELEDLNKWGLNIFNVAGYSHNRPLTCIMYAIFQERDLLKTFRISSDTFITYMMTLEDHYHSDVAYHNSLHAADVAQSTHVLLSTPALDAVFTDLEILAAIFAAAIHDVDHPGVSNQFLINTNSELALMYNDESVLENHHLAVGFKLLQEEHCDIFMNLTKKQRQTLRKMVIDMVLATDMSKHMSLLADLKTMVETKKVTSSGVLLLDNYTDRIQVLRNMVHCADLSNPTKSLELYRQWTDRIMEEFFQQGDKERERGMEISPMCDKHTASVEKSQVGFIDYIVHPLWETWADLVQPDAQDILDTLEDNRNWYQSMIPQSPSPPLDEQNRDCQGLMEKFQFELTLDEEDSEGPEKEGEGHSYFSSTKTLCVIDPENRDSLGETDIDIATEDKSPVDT
Method: Inhibition of recombinant human mononuclear lymphocyte (MNL) phosphodiesterase type IV B produced in insect cells with a baculovirus vector, The alleviating and/or curing effect of the instant compounds on allergic and atopic diseases was assessed by an in vitro assay system to detect an inhibiting effect on the recombinant human MNL phosphodiesterase type IV B.
Seventy-two hours after infection with recombinant baculovirus, the insect cells were harvested and pelleted at 500 g for 5 minutes. The cells were lysed in 10 ml lysis-buffer consisting of 20 mM Tris, 10 mM EGTA, 2 mM Na2 EDTA, 1% Triton-X-100, 1 mM Na3 VO4, 10 mM NaF, 2 μg/ml of leupeptine, pepstatine and aprotinine, 0.3 μg/ml benzamidine and 100 μg/ml TPCK pH 7.5. After 5 minutes on ice, solubilized cells were centrifuged at 4000 rpm for 15 minutes at 4° C. The resulting supernatant was filtered through a 0.45 μm filter (Millipore) and brought to TBS buffer (50 mM Tris, 150 mM NaCl pH 7.4).
The supernatant containing phosphodiesterase (PDE) type IV B, was subsequently loaded onto a 5 ml anti-FLAG-M2 affinity gel column, previously activated with 5 ml 100 mM glycine pH 3.5 and equilibrated with 20 ml 50 mM Tris, 150 mM NaCl pH 7.4. After washing the column with equilibration buffer, PDE IV was eluted in 1.5 ml fractions containing 37.5 μl 1M Tris pH 8. The fractions were dialyzed overnight against 20 mM Tris, 2 mM Na2 EDTA and 400 mM NaCl pH 7.5 and tested for PDE IV activity. Indentification was done on SDS PAGE and Western Blot (anti-FLAG-M2). Active fractions were pooled, brought to 10% glycerol and stored at -70° C.
The incubation mixture (pH 8) (200 μl) contained 20 mM Tris, 10 mM magnesium sulphate, 0.8 μM ^3 H-cAMP (310 mCi/mmole) and the phosphodiesterase type IV, the amount depending on the enzymatic activity. […]
The inhibiting effect of the present compounds on recombinant human MNL phosphodiesterase PDE IV B was measured at different concentrations of the instant compounds. The IC50 values (expressed in M) were calculated graphically from the thus obtained inhibition values.

[2] = test system: Dextran-induced oedema formation in mouse ear; experiment: Dextran-induced oedema formation in mouse ear; assay type: in vivo, Male Swiss mice; details: 5 mg/kg, oral, one hour before intravenous dextran T500 + pontamine sky-blue dye; compared with background extravasation
Method: Dextran-induced oedema formation in mouse ear.
Systemic injection of dextran T500 in normal, non-sensitized mice elicits increased vascular permeability, leading to extravasation and oedema of the extremities. When dextran is injected together with a blue dye, blueing of the ears is the most prominent feature of oedematous response.
Male Swiss mice weighing 24-26 g were orally pretreated with the test compound dissolved in PEG-200 at different concentrations or solvent. One hour later, the mice were given an intravenous injection with an isotonic saline solution containing 12 mg/ml dextran T500 and 2.6 mg/ml pontamine sky-blue dye, in a volume of 0.1 ml per 10 g body weight. One hour and forty-five minutes later, the animals are sacrificed by ether and their ears removed. Extraction and quantification of the extravasated dye is done as described by Van Wauwe and Goossens (Drug Dev. Res. 1986, 8, 213-218).
The extravasation of the dye is characterized by the blueing value which is defined as the concentration of the extracted dye in both ears. The background blueing value was determined once as the mean blueing value obtained by injecting a group of mice with a saline solution containing only dextran T500 and the blue dye. Table 1 lists the percentage inhibition of the extravasation of the dye when compared with the background extravasation of the dye when the test compound was administered at a dose of 5 mg/kg.

IC50 [1] [nM] | Compound | % inhibition of the extravasation of the dye [2] [%]
< 1000 | COc1ccc(/C(=C/n2cc[nH]c2=O)c2ccccc2)cc1OC1CCCC1 [Compound 2, (E)-1-[2-[3-(cyclopentyloxy)-4-methoxyphenyl]-2-phenylethenyl]-1,3-dihydro-2H-imidazol-2-one] | 15.5
< 1000 | CCOC(=O)C/C(=C\n1cc[nH]c1=O)c1ccc(OC)c(OC2CCCC2)c1 [Compound 4, ethyl (E)-3-(cyclopentyloxy)-β-[(2,3dihydro-2-oxo-1H-imidazol-1-yl)methylene]-4methoxybenzene-propanoate] | 25.9
 | COc1ccc(/C(=C\n2cc[nH]c2=O)CC(=O)O)cc1OC1CCCC1 [Compound 7, (Z)-3-(cyclopentyloxy)-β-[(2,3-dihydro-2-oxo-1H-imidazol-1-yl)methylene]4-methoxybenzenepropanoic acid] | 49.9
 | COc1ccc(C(=CN2CCNC2=O)c2ccccc2)cc1OC [Compound 8, 1-[2-(3,4-dimethoxyphenyl)-2-phenylethenyl]-2-imidazolidinone] | 17.9
 | COc1ccc(C(=CN2CCN(C(C)=O)C2=O)c2ccccc2)cc1OC [Compound 9, 1-acetyl-3-[2-(3,4dimethoxyphenyl)-2-phenylethenyl]-2-imidazolidinone] | 11.1
 | COc1ccc(/C(=C/n2ccn(C(c3ccccc3)c3ccccc3)c2=O)c2ccccc2)cc1OC1CCCC1 [Compound 10, (E)-1-[2-[3-(cyclopentyloxy)-4-methoxyphenyl]-2-phenylethenyl]-3-(diphenylmethyl)-1,3dihydro-2H-imidazol-2-one] | 40.1
 | COc1ccc(/C(=C\n2ccn(C(c3ccccc3)c3ccccc3)c2=O)c2ccccc2)cc1OC1CCCC1 [Compound 11, (Z)-1-[2-[3-(cyclopentyloxy)-4-methoxyphenyl]-2-phenylethenyl]-3-(diphenylmethyl)-1,3-dihydro-2H-imidazol-2-one] | 19.3
< 1000 | COc1ccc(/C(C)=C\n2ccn(C(c3ccccc3)c3ccccc3)c2=O)cc1OC1CCCC1 [Compound 12, (Z)-1-[2-[3-(cyclopentyloxy)-4-methoxyphenyl]-1-propenyl]-3-(diphenylmethyl)-2H-imidazol-2-one] | 
